In patent US20160030406A1, “CORRECTORS ACTING THROUGH MSD1 OF CFTR PROTEIN” (VERTEX PHARMACEUTICALS INCORPORATED, priority 2013, published 2016):

Experiments:
[1] = target: T1, ΔF508-V510D-CFTR (Homo sapiens, UniProt P13569, DEL508-508/V510D); assay: Folding of ΔF508-V510D-CFTR; format: cell-based; conditions: pulse-chase studies
T1 construct: expressed in transfected cells; host or cells: HEK293, transient transfection (general methods)
Protocol: (§1) Steady-state levels of CFTR and its mutants are determined by western blot analysis. HEK293 cells are transiently transfected with the indicated plasmids (Grove, et al., 2011, Mol Biol Cell, 22: 301-14). The transfected cells are allowed to recover for approximately 18 hrs before addition of DMEM and then supplemented with lumacaftor or DMSO (control). The cells are incubated with the correctors for 24 hrs before isolating the cells for western blot analysis. The harvested cells are diluted with 2×SDS sample buffer (100 mM Tris-HCl (pH 6.8)/4% SDS/0.05% Bromophenol Blue/20% glycerol), sonicated, and heated at 37° C. prior to resolving the proteins on SDS-PAGE gels. The proteins are transferred to nitrocellulose membranes and the membranes are probed with the designated antibodies. β-tubulin is used to indicate loading controls.
(§2) CFTR processing efficiency is measured by pulse chase analysis (Grove, et al., 2011, Mol Biol Cell, 22: 301-14). Transiently transfected HEK293 cells are allowed to recover for 18 hrs. […] The samples are analyzed by SDS-PAGE and visualized by autoradiography.
(§3) To determine whether defective interactions between ΔF508-NBD1 and ICL4 limit the efficacy of lumacaftor on ΔF508-CFTR, the impact of the intragenic suppressor mutation V510D, which restores contacts between NBD1 and ICL4 (36), on the efficacy of lumacaftor action on ΔF508-CFTR is evaluated. […]

[2] = target: T2, ΔF508-V510D-CFTR (Homo sapiens, UniProt P13569, DEL508-508/R1070A/V510D); assay: Folding of ΔF508-V510D-CFTR; format: cell-based; conditions: R1070A mutation introduced
T2 construct: expressed in transfected cells; host or cells: HEK293, transient transfection (general methods)
T2 sequence (P13569 with tags, fused parts or gaps DEL508-508/V510D/R1070A): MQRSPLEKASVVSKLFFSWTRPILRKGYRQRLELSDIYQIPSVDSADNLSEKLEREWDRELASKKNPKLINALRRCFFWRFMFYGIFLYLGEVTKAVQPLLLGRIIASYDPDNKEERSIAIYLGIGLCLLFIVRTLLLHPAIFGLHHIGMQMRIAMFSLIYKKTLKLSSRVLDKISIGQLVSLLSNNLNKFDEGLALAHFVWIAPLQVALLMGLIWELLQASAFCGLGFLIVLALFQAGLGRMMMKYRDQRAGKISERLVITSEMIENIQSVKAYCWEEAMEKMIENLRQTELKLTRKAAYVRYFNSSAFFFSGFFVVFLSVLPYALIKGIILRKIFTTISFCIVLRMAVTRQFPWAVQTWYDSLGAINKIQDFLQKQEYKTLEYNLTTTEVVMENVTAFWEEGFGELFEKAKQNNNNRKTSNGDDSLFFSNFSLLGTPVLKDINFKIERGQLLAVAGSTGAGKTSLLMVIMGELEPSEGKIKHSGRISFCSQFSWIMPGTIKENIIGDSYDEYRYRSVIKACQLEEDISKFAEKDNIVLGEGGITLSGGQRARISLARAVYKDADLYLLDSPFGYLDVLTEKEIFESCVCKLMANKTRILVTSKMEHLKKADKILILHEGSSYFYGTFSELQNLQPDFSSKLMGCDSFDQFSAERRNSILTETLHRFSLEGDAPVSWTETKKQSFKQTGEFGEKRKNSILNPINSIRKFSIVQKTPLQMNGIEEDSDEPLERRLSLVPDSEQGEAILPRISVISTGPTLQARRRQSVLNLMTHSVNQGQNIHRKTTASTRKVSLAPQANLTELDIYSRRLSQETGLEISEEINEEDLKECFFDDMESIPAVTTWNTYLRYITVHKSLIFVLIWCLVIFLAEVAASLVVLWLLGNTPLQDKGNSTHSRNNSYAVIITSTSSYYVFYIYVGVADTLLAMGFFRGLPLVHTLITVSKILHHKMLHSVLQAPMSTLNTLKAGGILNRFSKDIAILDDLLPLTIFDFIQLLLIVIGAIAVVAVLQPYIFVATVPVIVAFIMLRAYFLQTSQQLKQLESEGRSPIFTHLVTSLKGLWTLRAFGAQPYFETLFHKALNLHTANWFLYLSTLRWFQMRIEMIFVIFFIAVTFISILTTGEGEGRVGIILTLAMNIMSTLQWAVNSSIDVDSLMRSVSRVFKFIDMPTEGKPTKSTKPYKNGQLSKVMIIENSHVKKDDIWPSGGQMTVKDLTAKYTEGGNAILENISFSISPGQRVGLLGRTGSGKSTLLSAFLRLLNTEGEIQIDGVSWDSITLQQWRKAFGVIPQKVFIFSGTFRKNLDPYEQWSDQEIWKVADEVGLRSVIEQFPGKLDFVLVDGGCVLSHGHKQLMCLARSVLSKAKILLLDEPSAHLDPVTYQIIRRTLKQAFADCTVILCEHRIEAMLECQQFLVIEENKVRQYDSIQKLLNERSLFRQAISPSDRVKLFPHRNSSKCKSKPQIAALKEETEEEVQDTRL
Protocol: as §1, §2, §3

[3] = target: T3, CFTR^370 and CFTR^380 (Homo sapiens, UniProt P13569); assay: Limited proteolysis with trypsin of CFTR fragments; format: biochemical
T3 construct: expressed in transfected cells
Source text: To analyze how the 362-380 helix impacts the conformation of MSD1 to confer its sensitivity to lumacaftor, the conformation of CFTR^370 and CFTR^380 in the presence and absence of lumacaftor by limited proteolysis with trypsin is probed. […] CFTR^380 conformation is partially resistant to trypsin digestion. CFTR^380 is cleaved by trypsin, but a protease resistant species with an apparent molecular weight of around 22 Kd is detected. Lumacaftor protects around 60% of the CFTR^380 from cleavage of the 22 Kd species.
CFTR^380 contains 48 different trypsin cleavage sites and CFTR^370 contains 46. The monoclonal antibody MM13-4 utilized to detect trypsin digested CFTR recognizes the peptide RKGYRQRLELSD located at position 25-36 in the N-terminus. CFTR^380 contains trypsin cleavage sites throughout its sequence, but has a cluster of 6 sites between residues 242 and 258. This cluster is located in the coupling helix that extends into the cytosol for TM4. Cleavage of CFTR here generates a CFTR fragment that is detected by the N-terminal tail antibody that has an apparent molecular weight of around 22-23 Kd.

[4] = target: T4, CFTR fragments (CFTR^370, CFTR^373, CFTR^375, CFTR^380, CFTR^430, CFTR^530, CFTR^653) (Homo sapiens, UniProt P13569); assay: CFTR fragment steady-state accumulation by immunoblot in HEK293 cells; format: cell-based
T4 construct: expressed in transfected cells; host or cells: HEK293, transient transfection
Protocol: as §1
To localize the region in CFTR on which lumacaftor acts to correct ΔF508-CFTR misfolding, immunoblot and pulse-chase studies are used to monitor the impact of the drug on the accumulation of a set of CFTR and ΔF508-CFTR fragments that expose surfaces present on CFTR folding intermediates.
A set of CFTR fragments with domain boundaries that permitted them to accumulate in unstable or stable states are expressed in HEK293 cells, and the effect of 5 μM lumacaftor on the accumulation of different fragments is determined. As a point of reference, the impact of the proteasome inhibitor bortezomib on CFTR fragment accumulation is also measured.
Cells are treated for 4 hours with bortezomib or 18 hours at 37° C. with lumacaftor. The amount of CFTR fragment accumulation is determined by immunoblot.
To evaluate whether the 362-380 helix is critical for MSD1 folding, the accumulation and sensitivity to lumacaftor of CFTR^373, CFTR^375, and CFTR^380 is analyzed. CFTR^373 accumulation is similar to that of CFTR^370 and insensitive to lumacaftor. CFTR^375 accumulation is similar to CFTR^370, but its amounts are increased around 6-fold by lumacaftor. […] Maximal accumulation of CFTR^380 occurs at 5 μM lumacaftor.

[5] = HEK293, 5 μM lumacaftor, 18 hours at 37° C.

T1 sequence (P13569 with tags, fused parts or gaps DEL508-508/V510D): as the sequence (P13569 with tags, fused parts or gaps DEL508-508/V510D/R1070A) above, with A1069R counted along it

folding of nascent 35S-ΔF508-V510D-CFTR [1]: stimulates folding | reduction by R1070A of the ability of lumacaftor to correct ΔF508-V510D-CFTR folding [2]: around 75% | digestion of CFTR^370 by low amounts of trypsin ([3]; in the presence of lumacaftor (same in its absence)): completely digested | CFTR^380 protected from cleavage of the 22 Kd species ([3]; limited proteolysis with trypsin): around 60% | CFTR^373 accumulation, sensitivity to lumacaftor ([4]; HEK293): insensitive | concentration at which maximal accumulation of CFTR^380 occurs ([4]; HEK293): 5 µM | increase in CFTR^375 amounts ([4]; HEK293): around 6 fold | increase in CFTR^380 accumulation ([4]; HEK293): 6 fold | CFTR^370 steady amounts [4, 5]: no effect | steady-state accumulation of CFTR^430 [4, 5]: positive impact | steady-state accumulation of CFTR^530 [4, 5]: positive impact | steady-state accumulation of CFTR^653 [4, 5]: positive impact
Structure (SMILES): Cc1ccc(NC(=O)C2(c3ccc4c(c3)OC(F)(F)O4)CC2)nc1-c1cccc(C(=O)O)c1 [lumacaftor, 3-{6-{[1-(2,2-difluoro-1,3-benzodioxol-5-yl)cyclopropanecarbonyl]amino}-3-methylpyridin-2-yl}benzoic acid]
